Assays:
peritoneal MΦs [1] = settings: literature ref. 13; cited from earlier work
peritoneal MΦs [2] = experiment: MΦ phagocytosis of FITC-labeled zymosan; format: cell-based, mice; settings: for enhancement of MΦ phagocytosis of zymosan: 15 min compound, then FITC-labeled zymosan 30 min, 37° C.
Protocol: (§1) The 7,14-dihydroxy-containing products were isolated from methyl formate fractions obtained from murine MΦs via RP-HPLC (Agilent 1100 series) using a Beckman C18 column (250 mm×10 mm×5 μm) and methanol/water (65/35; v/v) ramped to 85/15 (v/v) for 30 min. Their actions were assessed in murine zymosan A-induced peritonitis (19). Peritonitis was initiated by intraperitoneal (i.p.) administration of 1 mg zymosan A in 1 ml of sterile saline, and each compound was administered i.v. 5 min before zymosan. At 2 h, mice were sacrificed, and peritoneal exudates harvested (5 ml DPBS^−/− without calcium and magnesium), identified and enumerated by light microscopy and FACS. Resident MΦs were identified by FACS (8). To assess pro-resolving actions, peritoneal MΦs (24-well plate, 10^5 cells/well) from naïve mice were incubated with each compound (15 min, pH 7.45) followed by addition of FITC-labeled Zymosan A (30 min, 37° C.). Trypan blue was used to quench extracellular zymosan particles (1 min, 37° C.) followed by DPBS^+/+ (pH 7.45), and phagocytosis quantified using a Perkin-Elmer Victor^3.

lipoxygenase (LOX) = experiment: LC/MS/MS lipidomics of peritonitis exudates with LOX inhibitor; format: in vivo, mice; settings: exudates obtained with the LOX inhibitor, n=3
Protocol: In view of the actions of specialized chemical mediators in resolution (6, 7), 17-HDHA was monitored as a biomarker of activation and conversion of endogenous DHA, as well as employed targeted lipidomics to query whether other pathways were operative (see FIG. 1). During this course of peritonitis, PMN rapidly entered, reaching max within 12 h. In this self-resolving system (19), PMN declined and were lost from exudates, thus defining resolution (FIG. 1). Unbiased targeted mediator lipidomics employing LC/MS/MS-based analyses were carried out with these exudates. In addition to 17S-HDHA, a marker of resolvin and protectin biosynthesis (6), endogenous DHA was converted to 14S-hydroxydocosahexaenoic acid (14S-HDHA).

PMN = experiment: murine zymosan A-induced peritonitis, exudate PMN; format: in vivo, mice
Protocol: as §1

Compound: CC/C=C\C[C@H](O)\C=C/C=C/C=C/[C@H](O)C/C=C\C/C=C\CCC(=O)O [PD1, 10R,17S-dihydroxydocosa-4Z,7Z,11E,13E,15Z,19Z-hexaenoic acid]
- concentration (as low as) enhancing MΦ phagocytosis (peritoneal MΦs [1]): 1 nM

Compound: CCCCC[C@H](O)/C=C/[C@H]1[C@H](O)CC(=O)[C@@H]1C/C=C\CCCC(=O)O [PGE2, prostaglandin E2, reference compound]
- enhancement of MΦ phagocytosis of zymosan (peritoneal MΦs [2]; FIG. 3D): did not enhance phagocytosis

Compound: CC[C@@H](O)/C=C/C=C\C[C@@H](O)/C=C/C=C/C=C\[C@@H](O)CCCC(=O)O [RvE1, 5S,12R,18R-trihydroxyeicosa-6Z,8E,10E,14Z,16E-pentaenoic acid]
- concentration (as low as) enhancing MΦ phagocytosis (peritoneal MΦs [1]): 1 nM

Compound: O=c1ccc2cc(O)c(O)cc2o1 [esculetin]
- 17S-HDHA and 14S-HDHA in peritonitis exudates (lipoxygenase (LOX)): Neither product was identified

Compound: CC/C=C\C/C=C\CC(O)C=CC=CC=CC(O)C/C=C\CCC(=O)O (stereo not drawn) [MaR1, 7,14-dihydroxydocosa-4Z,8,10,12,16Z,19Z-hexaenoic acid]
- dose (as low as) that potently reduced infiltration of PMN into sites of inflammation (PMN; i.v. before i.p. zymosan, dose response FIG. 3C): 0.2 ng/mouse
- anti-inflammatory action regulating PMN entry into zymosan-induced peritonitis (PMN; nanogram quantities per mouse, FIG. 3A): stopping PMN infiltration
- enhancement of MΦ phagocytosis of zymosan (peritoneal MΦs [2]; FIG. 3D): enhances phagocytosis
- potency compared to RvE1 and PD1 (peritoneal MΦs [2]; FIG. 3, inset comparison at 1 nM): comparable potency

Compound: CC/C=C\C/C=C\C[C@H](O)/C=C/C=C\C=C\[C@@H](O)C/C=C\CCC(=O)O [double dioxygenation product, 7S,14S-dihydroxydocosa-4Z,8E,10Z,12E,16Z,19Z-hexaenoic acid]
- PMN infiltration in zymosan-induced peritonitis (PMN; 0.1 ng dose per mouse, leukocytes enumerated after 2 h, FIG. 3B): reduced PMN infiltration
- potency on PMN infiltration compared with the MΦ isolated material (PMN; 0.1 ng/mouse each, FIG. 3B): less potent
- enhancement of MΦ phagocytosis of zymosan (peritoneal MΦs [2]; FIG. 3D): active
- potency in phagocytosis compared with the new product isolated from MΦs (peritoneal MΦs [2]; direct comparison, FIG. 3D): less potent
